One series concerns Mycobacterium fortuitum. Description: microbe, parasite or virus in culture. The format is cell-based. The note with it: for MIC: Mycolicibacterium fortuitum.
The subject of a further series is Mycobacterium bovis. The series is described as follows: microbe, parasite or virus in culture. The format is cell-based. The note with it: for MIC: Mycobacterium tuberculosis variant bovis, read-out: Minimum inhibitory concentration (MIC) M. bovis; for potency relative to the standard references (M. bovis MIC): vs INH and PZA.
The subject of series [1] is RPE1 (normal human immortalized retinal epithelial) cell line. The series is described as follows: Antiproliferative properties by MTT technique. The class given is cell-based. The note with it: RPE1 cells, 100 μM. As for the experimental part:
Antiproliferative properties of the synthesized compounds were screened against RPE1 (normal human immortalized retinal epithelial) cell line to determine the toxicity/selectivity towards normal cell by the standard MTT technique.[23]
Antiproliferative properties of the synthesized compounds were tested against RPE1 (normal human immortalized retinal epithelial) cell line at 100 μM to determine the toxicity/selectivity towards normal cell by the standard MTT technique.[23]

A further series concerns Mycobacterium marinum. Description: microbe, parasite or virus in culture. The format is cell-based. The note with it: clinical isolate, read-out: Minimum inhibitory concentration (MIC) M. marinum.
Series [2] has as its system M. tuberculosis Erdman strain expressing luciferase. Description: microbe, parasite or virus in culture. The class given is cell-based, Mycobacterium tuberculosis. The note with it: for inhibition at 30 µg/mL: Mycobacterium tuberculosis, ERDMAN, 168 h, read-out: Observed % growth inhibition at 30 µg/mL.
The subject of the next series is Staphylococcus aureus. The series is described as follows: Aerobic antibacterial MIC, standard dilution technique. The format is cell-based. The note with it: clinical isolate, read-out: Minimum inhibitory concentration (MIC) Staphylococcus aureus. The text has this:
(§1) Antibacterial properties were investigated for the synthesized compounds against a variety of Gram-positive (Staphylococcus aureus, Enterococcus faecalis) and Gram-negative (Klebsiella pneumonia, Proteus vulgaris, Pseudomonas aeruginosa) clinical isolate bacteria utilizing the standard technique.[21]

In another series the test system is Enterococcus faecalis. The series is described as above. The format is cell-based. The note with it: Enterococcus faecalis, clinical isolate, read-out: Minimum inhibitory concentration (MIC) Enterococcus faecalis.
Excerpt: as §1

The test system of another series is Proteus vulgaris. The series is described as above. The class given is cell-based. The note with it: clinical isolate, read-out: Minimum inhibitory concentration (MIC) Proteus vulgaris.
Excerpt: as §1

The subject of another series is Pseudomonas aeruginosa. The series is described as above. The format is cell-based. The note with it: clinical isolate, read-out: Minimum inhibitory concentration (MIC) Pseudomonas aeruginosa.
Excerpt: as §1

A further series relates to Klebsiella pneumoniae. Described as above. The note with it: clinical isolate, read-out: Minimum inhibitory concentration (MIC) Klebsiella pneumoniae. The class given is cell-based.
Excerpt: as §1

Where [3] appears, read: clinical isolate, observed MIC, read-out: Minimum inhibitory concentration (MIC) M. fortuitum.
Setting [4] is: clinical isolate, read-out: Minimum inhibitory concentration (MIC) M. fortuitum.
Setting [5] is: M. fortuitum, observed values listed with the BMLR-QSAR model, read-out: Observed MIC (Table S6).
[6] abbreviates: 30 μg mL^−1, pH 7.0, 7 days, vs untreated controls.

Where “and” joins values, the source holds several entries; their conditions need not be identical. Identical values can stand only once. Like-named read-outs stand apart in the source and are kept apart here. Some results are limits rather than exact numbers.

In the case of `O=C(NC(Cc1ccccc1)C(=O)O)c1cnccn1` (racemic) [10f, (Pyrazine-2-carbonyl)-DL-phenylalanine], the MIC was above 73.7 µM in the series on Mycobacterium fortuitum (setting [3]); above 20 µg/mL in the series with Mycobacterium fortuitum (setting [4]); > 20 µg/mL and > 73.7 µM in the series on Mycobacterium bovis; 73.7 µM in the series on Mycobacterium marinum (observed MIC); 20 µg/mL in the series on Mycobacterium marinum. Besides, in series [1], the “Percentage of cell proliferation ± SD” value came out at 86.5 ± 4.2%.
As a reminder, the melting point is the temperature, or range, at which the solid turns liquid. `CC(C)C[C@H](NC(=O)c1cnccn1)C(=O)O` [10a, (Pyrazine-2-carbonyl)-L-leucine] gave a melting point of 155 to 156 °C. Moreover, the MIC in the series on Mycobacterium fortuitum (setting [5]) was found to be 84300 µM. Besides, the MIC in the series with Mycobacterium fortuitum (setting [3]) was found to be 84.3 µM. The MIC in the series with Mycobacterium fortuitum (setting [4]) is 20 µg/mL. The MIC in the series on Mycobacterium bovis is > 20 µg/mL and > 84.3 µM. In series [1], the “Percentage of cell proliferation ± SD” value turned out to be 84.6 ± 0.7%. Further, in series [2] (setting [6]), the inhibition at 30 µg/mL was 88.8%. For the same compound, in the series with Mycobacterium marinum (observed MIC), the MIC came to 84.3 µM. For the same compound, the MIC in the series with Mycobacterium marinum came out at 20 µg/mL.
`CC[C@@H](C)[C@H](NC(=O)c1cnccn1)C(=O)O` [10c, (Pyrazine-2-carbonyl)-L-alloisoleucine] showed a melting point of 164 to 166 °C. Also, the MIC with Mycobacterium fortuitum (setting [3]) is above 84.3 µM. For the same compound, in the series with Mycobacterium fortuitum (setting [4]), the MIC was above 20 µg/mL. Besides, the MIC with Mycobacterium bovis was > 20 µg/mL and > 84.3 µM. Also, the “Percentage of cell proliferation ± SD” value in series [1] is reported as 81.8 ± 5.5%. Also, the inhibition at 30 µg/mL in [2] (setting [6]) amounted to 84.3%. Besides, the MIC in the series on Mycobacterium marinum (observed MIC) is above 84.3 µM. Moreover, in the series with Mycobacterium marinum, the MIC is above 20 µg/mL.
Take `CSCC[C@H](NC(=O)c1cnccn1)C(=O)O` [10d, (Pyrazine-2-carbonyl)-L-methionine]: the melting point lay within 136 to 138 °C. In the series on Mycobacterium fortuitum (setting [3]), the MIC was above 78.3 µM. The MIC with Mycobacterium fortuitum (setting [4]) was above 20 µg/mL. Moreover, the MIC in the series on Mycobacterium bovis was > 20 µg/mL and > 78.3 µM. Besides, the “Percentage of cell proliferation ± SD” value in [1] is recorded as 82.9 ± 8.5%. Besides, the inhibition at 30 µg/mL in series [2] (setting [6]) amounted to 80.2%. Moreover, the MIC with Mycobacterium marinum (observed MIC) is above 78.3 µM. The MIC in the series with Mycobacterium marinum is above 20 µg/mL.
On to `O=C(N[C@@H](Cc1ccccc1)C(=O)O)c1cnccn1` [10e, (Pyrazine-2-carbonyl)-L-phenylalanine], for which the MIC with Mycobacterium fortuitum (setting [3]) is above 73.7 µM; with Mycobacterium fortuitum (setting [4]), above 20 µg/mL; in the series with Mycobacterium bovis, > 20 µg/mL and > 73.7 µM; in the series on Mycobacterium marinum (observed MIC) it was above 73.7 µM; in the series on Mycobacterium marinum, above 20 µg/mL. Moreover, in series [1], the “Percentage of cell proliferation ± SD” value worked out at 90.4 ± 3.3%. Also, in series [2] (setting [6]), the inhibition at 30 µg/mL amounted to 60.4%.
As to `O=C(N[C@@H](Cc1c[nH]c2ccccc12)C(=O)O)c1cnccn1` [10g, (Pyrazine-2-carbonyl)-L-tryptophan], the melting point is 127 to 129 °C. In the series with Mycobacterium fortuitum (setting [3]), the MIC was above 64.5 µM. For the same compound, the MIC with Mycobacterium fortuitum (setting [4]) was above 20 µg/mL. For the same compound, the MIC with Mycobacterium bovis was > 20 µg/mL and > 64.5 µM. In addition, the “Percentage of cell proliferation ± SD” value in [1] is on record as 80.1 ± 7.4%. Besides, the inhibition at 30 µg/mL in series [2] (setting [6]) was 8.8%. In the series with Mycobacterium marinum (observed MIC), the MIC is above 64.5 µM. In the series with Mycobacterium marinum, the MIC was above 20 µg/mL.
`CC(C)C[C@H](NC(=O)c1cnccn1)C(=O)NNC(=O)c1ccncc1` [12a, (S)-N-(1-(2-Isonicotinoylhydrazineyl)-4-methyl-1-oxopentan-2-yl)pyrazine-2-carboxamide]: the melting point was 160 to 162 °C. The MIC in the series on Mycobacterium fortuitum (setting [5]) turned out to be 56100 µM. Further, the MIC in the series with Mycobacterium fortuitum (setting [3]) was 56.1 µM. In addition, the MIC in the series with Mycobacterium fortuitum (setting [4]) was determined as 20 µg/mL. The MIC with Mycobacterium bovis is > 20 µg/mL and > 56.1 µM. Moreover, the “Percentage of cell proliferation ± SD” value in series [1] came out at 80.1 ± 4.2%. Moreover, in series [2] (setting [6]), the inhibition at 30 µg/mL is 68.9%. The MIC in the series with Mycobacterium marinum (observed MIC) was determined as 56.1 µM. For the same compound, the MIC in the series with Mycobacterium marinum amounted to 20 µg/mL.
Compound `CSCC[C@H](NC(=O)c1cnccn1)C(=O)NNC(=O)c1ccncc1` [12d, (S)-N-(1-(2-Isonicotinoylhydrazineyl)-4-(methylthio)-1-oxobutan-2-yl)pyrazine-2-carboxamide] gave a melting point of 145 to 147 °C. The MIC with Mycobacterium fortuitum (setting [5]) worked out at 53400 µM. The MIC in the series with Mycobacterium fortuitum (setting [3]) worked out at 53.4 µM. The MIC in the series with Mycobacterium fortuitum (setting [4]) was 20 µg/mL. For the same compound, in the series on Mycobacterium bovis, the MIC is > 20 µg/mL and > 53.4 µM. Further, the MIC in the series on Mycobacterium marinum (observed MIC) was found to be 26.7 µM. The MIC in the series on Mycobacterium marinum came out at 10 µg/mL.
With `O=C(NNC(=O)C(Cc1ccccc1)NC(=O)c1cnccn1)c1ccncc1` (stereo not drawn) [12f, N-(1-(2-Isonicotinoylhydrazineyl)-1-oxo-3-phenylpropan-2-yl)pyrazine-2-carboxamide], the melting point fell in the range of 143 to 145 °C. Further, in the series on Mycobacterium fortuitum (setting [3]), the MIC is 25.6 µM. In addition, the MIC with Mycobacterium fortuitum (setting [4]) came out at 10 µg/mL. For the same compound, the “potency relative to INH (M. fortuitum MIC)” value in the series with Mycobacterium fortuitum (vs INH MIC 145.8 μM) is reported as “about 5.6 folds”. Besides, the “potency relative to PZA (M. fortuitum MIC)” value in the series with Mycobacterium fortuitum (vs PZA MIC 81.2 μM) was around 3.2 folds. Besides, the MIC in the series with Mycobacterium bovis was > 20 µg/mL and > 51.2 µM. The “Percentage of cell proliferation ± SD” value in [1] is 95.5 ± 8.6%. The MIC in the series on Mycobacterium marinum (observed MIC) stood at 25.6 µM. The MIC in the series on Mycobacterium marinum stood at 10 µg/mL.
For `O=C(NNC(=O)c1ccncc1)c1ccncc1` [C00019], the MIC in the series with Staphylococcus aureus is 4 µg/mL; in the series with Enterococcus faecalis, 16 µg/mL; in the series on Proteus vulgaris, 0.03 µg/mL; with Pseudomonas aeruginosa, 0.06 µg/mL; with Pseudomonas aeruginosa (value in parentheses), 0.25 µM; in the series on Klebsiella pneumoniae, 4 µg/mL.
`NNC(=O)c1ccncc1` [INH, isoniazid]: the MIC with Mycobacterium fortuitum (setting [3]) is 146 µM; in the series with Mycobacterium fortuitum (setting [4]) it was 20 µg/mL; with Mycobacterium bovis it was 146 µM and 20 µg/mL; with Mycobacterium marinum (observed MIC), 72.9 µM; in the series with Mycobacterium marinum, 10 µg/mL. Besides, in series [2] (setting [6]), the inhibition at 30 µg/mL was above 70%.
With `NC(=O)c1cnccn1` [PZA, pyrazinamide, reference compound], the MIC in the series with Mycobacterium fortuitum (setting [5]) is 81200 µM; in the series on Mycobacterium fortuitum (setting [3]) it was 81.2 µM; in the series with Mycobacterium fortuitum (setting [4]), 10 µg/mL; in the series with Mycobacterium bovis, 162 µM and 20 µg/mL; in the series with Mycobacterium marinum (observed MIC), 81.2 µM; in the series with Mycobacterium marinum, 10 µg/mL. Further, the “Observed % growth inhibition at 30 µg/mL” value in series [2] (setting [6]) is “not observed”.
Turning to `O=C(NNC(=O)c1cnccn1)c1ccncc1` [compound 13, N′-Isonicotinoylpyrazine-2-carbohydrazide], the MIC in the series on Mycobacterium fortuitum (setting [5]) was 41100 µM; with Mycobacterium fortuitum (setting [3]), 41.1 µM; in the series on Mycobacterium fortuitum (setting [4]) it was 10 µg/mL; with Staphylococcus aureus (value in parentheses), 32.9 µM; in the series on Enterococcus faecalis (value in parentheses), 65.8 µM; in the series on Proteus vulgaris (value in parentheses), 263 µM. The MIC in the series on Klebsiella pneumoniae (value in parentheses) is 32.9 µM; in the series on Mycobacterium bovis, 82.2 µM and 20 µg/mL; with Mycobacterium marinum (observed MIC) it was 41.1 µM; in the series on Mycobacterium marinum, 10 µg/mL. In addition, the “potency relative to the standard references (M. bovis MIC)” value in the series with Mycobacterium bovis is 1.8–2.0 folds. Moreover, the “Percentage of cell proliferation ± SD” value in [1] stood at 88.2 ± 5.1%. Further, the “growth inhibition at 3 μg mL^−1” value in series [2] (3 μg mL^−1, pH 7.0, compared with INH (>70% at 30 μg mL^−1)) is given as “same growth inhibition”. The inhibition at 30 µg/mL in series [2] (setting [6]) turned out to be 90.1%.
In the case of `O=C(NNC(=O)c1ccncc1)c1ccncc1` [compound 16, N′-Isonicotinoylisonicotinohydrazide], the MIC with Mycobacterium fortuitum (setting [5]) was found to be 82600 µM; with Mycobacterium fortuitum (setting [3]), 82.6 µM; in the series on Mycobacterium fortuitum (setting [4]), 20 µg/mL; with Staphylococcus aureus (value in parentheses) it was 16.5 µM; with Enterococcus faecalis (value in parentheses), 66 µM; with Proteus vulgaris (value in parentheses), 0.12 µM. Further, the MIC in the series on Klebsiella pneumoniae (value in parentheses) was 16.5 µM; with Mycobacterium bovis, 82.6 µM and 20 µg/mL; with Mycobacterium marinum (observed MIC), 82.6 µM; with Mycobacterium marinum, 20 µg/mL. Moreover, the “potency relative to the standard references (M. bovis MIC)” value in the series with Mycobacterium bovis was 1.8–2.0 folds. The “Percentage of cell proliferation ± SD” value in [1] is 83.5 ± 7.4%. The inhibition at 30 µg/mL in series [2] (setting [6]) turned out to be 78.1%.

The record behind these values is article PMC9065575, “Synthesis, computational studies, antimycobacterial and antibacterial properties of pyrazinoic acid–isoniazid hybrid conjugates” (RSC Advances, 2019).
